Experimental data from patent publication US12114655B2, “Agricultural compositions and methods of use thereof” (Valent U.S.A. LLC, priority 2019, dated 2024).

System: corn
Assay: Spray chamber treatment of corn plots grown to 12 inches: efficacy of clethodim with or without mannitol or sorbitol
Format: in vivo
Conditions: 14 days after treatment; clethodim 55.4 g/HA, mannitol or sorbitol 6800 g/HA where present; all compositions with 1% v/v Agridex and 0.25% v/v Induce; corn 12 inches in height
Method: 4 trials were conducted on the efficacy of clethodim with or without mannitol or sorbitol. Specifically, 4 plots of corn were grown to 12 inches in height. These plots were placed in a spray chamber for treatment. All compositions contained 1% v/v of Agridex® and 0.25% v/v of Induce®. Treatments and results can be found in Table 1, below.

CCSC(C)CC1CC(=O)C(/C(CC)=N/OC/C=C/Cl)=C(O)C1 (stereo not shown) [Clethodim, clethodim]
Days After Treatment (% control) 14: 20.8 % control
